One test has as its system E. coli ATCC 25922. The experiment in a line: MIC, E. coli ATCC 25922. In kind it is cell-based. To be noted: for MIC: Escherichia coli.
A further test deals with S. aureus ATCC 13709. Description: MIC, S. aureus ATCC 13709. In kind it is cell-based. The conditions noted are these: for MIC: Staphylococcus aureus.
Where [1] appears, read: ATCC25922, E. coli, Alamar Blue read after overnight incubation at 35° C., read-out: MIC Ec.
The mark [2] stands for this setting: ATCC13709, S. aureus, Alamar Blue read after overnight incubation at 35° C., read-out: MIC Sa.
Where [3] appears, read: E. coli, Alamar Blue read after overnight incubation at 35° C.
Where [4] appears, read: S. aureus, Alamar Blue read after overnight incubation at 35° C.
[5] abbreviates: ATCC25922, Table 16, new R4 substituents, EC8 not defined, read-out: EC8 MIC.
Setting [6] is: ATCC13709, Table 16, new R4 substituents, read-out: SA MIC.

The values that follow come from patent publication US10865216B2, “Tricyclic Gyrase inhibitors” (MERCK SHARP & DOHME CORP., priority 2012, dated 2020).

Structures are written as SMILES. Converted amounts (≈) assume the structure as drawn. Read-outs that look alike come from different tables or passages of the source. A value given as a limit tells only on which side of the number the result lay.

The MIC is the smallest concentration in the dilution series that meets the test's criterion for growth inhibition. Regarding `CNc1cccc2c1[nH]c1nc(Oc3cncc(F)c3)cc(N3C[C@@H](NC)C4(CC4)C3)c12` [Compound 3.51], the figures for the minimum inhibitory concentration (MIC) in the test with E. coli ATCC 25922 (setting [1]) and in the test with S. aureus ATCC 13709 (setting [2]) were 32 µg/mL (≈ 74 µM) and 8 µg/mL (≈ 18.5 µM), respectively.

The compound `CCOC(=O)c1csc(Nc2nc(N3C[C@H]4C[C@@H]3C[C@H]4N)c3c(n2)[nH]c2c(NC)cc(F)cc23)n1` [Compound 10.42] registered an MIC Ec against E. coli ATCC 25922 (Table 18, Ec) of 1 µg/mL (≈ 2.01 µM). Further, the MIC Sa in the test on S. aureus ATCC 13709 (Table 18, Sa) is no more than 0.5 µg/mL.

Turning to `CNc1cc(F)cc2c1[nH]c1nc(Oc3cncc(F)c3)nc(N3CC(N)C4(CC4)C3)c12` (stereo not drawn) [Compound 4.057], the “MIC Ec” value in the test with E. coli ATCC 25922 (setting [3]) is no more than 0.5 µg/mL. Further, the “MIC Sa” value in the test with S. aureus ATCC 13709 (setting [4]) was no more than 0.5 µg/mL.

Take `CNc1cc(F)cc2c1[nH]c1nc(Oc3cnc(C(C)C)nc3)nc(N3CC4C(N)C4C3)c12` (stereo not drawn) [Compound 4.232]: the “MIC Ec” value in the test with E. coli ATCC 25922 (setting [3]) is no more than 0.5 µg/mL. Besides, the “MIC Sa” value against S. aureus ATCC 13709 (setting [4]) was no more than 0.5 µg/mL.

Consider `CNc1cc(F)cc2c1[nH]c1nc(Oc3cnc(C)nc3)nc(N3CCC(C)(N)C3)c12` (stereo not drawn), for which the MIC in the test on E. coli ATCC 25922 (setting [5]) and in the test on S. aureus ATCC 13709 (setting [6]) was no more than 0.5 µg/mL throughout.

Turning to `CNc1cc(F)cc2c1[nH]c1nc(Oc3cnc(C(C)O)nc3)nc(N3CC4(CC[C@H]4N)C3)c12` (stereo partly drawn) [Compound 4.430], the MIC in the test on E. coli ATCC 25922 (setting [1]) and in the test with S. aureus ATCC 13709 (setting [2]) was no more than 0.5 µg/mL each time.

Turning to `CNc1cccc2c1[nH]c1nc(Sc3cnc4cccnc4c3)nc(N3CC4C(C3)C4(N)CO)c12` (stereo not drawn) [Compound 1.30], the MIC was greater than 64 µg/mL in the test on E. coli ATCC 25922 (setting [1]) and 16 µg/mL (≈ 33 µM) with S. aureus ATCC 13709 (setting [2]).

Regarding `COc1cccc2c1[nH]c1nc(Sc3cnc4ccc[n+]([O-])c4c3)nc(N3CC[C@@H](N)C3)c12` [Compound 1.78], the minimal inhibitory concentration (MIC) in the test on E. coli ATCC 25922 (setting [1]) was 64 µg/mL (≈ 139 µM); in the test on S. aureus ATCC 13709 (setting [2]) it was no more than 0.5 µg/mL.

The compound `CNc1cc(F)cc2c1[nH]c1nc(Oc3ccc(C)nc3)nc(N3CC4CC(C)NC4C3)c12` (stereo not drawn) [Compound 10.79] displayed an MIC Ec against E. coli ATCC 25922 (Table 18, Ec) of no more than 0.5 µg/mL. Also, the MIC Sa in the test on S. aureus ATCC 13709 (Table 18, Sa) is no more than 0.5 µg/mL.

As to `CNc1cccc2c1[nH]c1nc(Oc3ccc4nccnc4c3)cc(N3CC4C(N)C4C3)c12` (stereo not drawn) [Compound 3.31], the MIC was 8 µg/mL (≈ 18.3 µM) with E. coli ATCC 25922 (setting [1]) and 2 µg/mL (≈ 4.57 µM) with S. aureus ATCC 13709 (setting [2]).

`CNc1cccc2c1[nH]c1nc(Oc3cncnc3)cc(N3CC4(CCNC4)C3)c12` [Compound 3.67]: the MIC in the test on E. coli ATCC 25922 (setting [1]) was found to be 64 µg/mL (≈ 159 µM); in the test on S. aureus ATCC 13709 (setting [2]), 16 µg/mL (≈ 39.9 µM).

Regarding `CNc1cccc2c1[nH]c1nc(Sc3cnc4ccc[n+]([O-])c4c3)nc(N3CC4C(N)C4C3)c12` (stereo not drawn) [Compound 1.23], in the test on E. coli ATCC 25922 (setting [3]), the “MIC Ec” value is no more than 0.5 µg/mL. Besides, in the test with S. aureus ATCC 13709 (setting [4]), the “MIC Sa” value was no more than 0.5 µg/mL.

For `CNc1cc(F)cc2c1[nH]c1nc(Oc3cnc(C4CC4)nc3)nc(N3CC4CCC(N)C4C3)c12` (stereo not drawn) [Compound 4.251], in the test with E. coli ATCC 25922 (setting [3]), the “MIC Ec” value is no more than 0.5 µg/mL. Also, the “MIC Sa” value against S. aureus ATCC 13709 (setting [4]) is no more than 0.5 µg/mL.

Regarding `CNc1cc(F)cc2c1[nH]c1nc(Oc3cnc(CCO)nc3)nc(N3CC4CC3C[C@@H]4N)c12` (stereo partly drawn) [Compound 4.428], the minimal inhibitory concentration (MIC) in the test on E. coli ATCC 25922 (setting [1]) was 2 µg/mL (≈ 4.31 µM); in the test with S. aureus ATCC 13709 (setting [2]), no more than 0.5 µg/mL.

In the case of `CNc1cc(F)cc2c1[nH]c1nc(Oc3cnc(N4CCOCC4)nc3)nc(N3CCC(CN)C3)c12` (stereo not drawn) [Compound 4.215], the “MIC Ec” value in the test on E. coli ATCC 25922 (setting [3]) was 4 µg/mL (≈ 8.1 µM). In the test with S. aureus ATCC 13709 (setting [4]), the “MIC Sa” value was no more than 0.5 µg/mL.

On to `CNc1cc(F)cc2c1[nH]c1nc(Oc3cnc(C)nc3)nc(C3=CCNC3)c12`, for which the minimum inhibitory concentration (MIC) in the test on E. coli ATCC 25922 (setting [5]) was 8 µg/mL (≈ 20.4 µM); in the test on S. aureus ATCC 13709 (setting [6]), no more than 0.5 µg/mL.

As for `NC1CN(c2nc(Sc3cnc4ccc[n+]([O-])c4c3)nc3[nH]c4c(NC5CC5)cc(F)cc4c23)CC12CC2` (stereo not drawn) [Compound 1.02], the “MIC Ec” value with E. coli ATCC 25922 (setting [3]) is greater than 64 µg/mL. Also, in the test on S. aureus ATCC 13709 (setting [4]), the “MIC Sa” value was 32 µg/mL (≈ 60.5 µM).

As for `CNc1cc(F)cc2c1[nH]c1nc(Oc3cncnc3)ncc12` [Compound 4.031], the “MIC Ec” value against E. coli ATCC 25922 (setting [3]) is greater than 16 µg/mL. Further, in the test with S. aureus ATCC 13709 (setting [4]), the “MIC Sa” value amounted to 2 µg/mL (≈ 6.45 µM).

In turn, `CNc1cc(F)cc2c1[nH]c1nc(Oc3ccc4ccnn4c3)nc(N3CC4(CCC4N)C3)c12` (stereo not drawn) [Compound 10.57] registered an MIC Ec in the test with E. coli ATCC 25922 (Table 18, Ec) of no more than 0.5 µg/mL. The same compound came in with an MIC Sa with S. aureus ATCC 13709 (Table 18, Sa) of no more than 0.5 µg/mL.

For `CNc1cccc2c1[nH]c1nc(Sc3cc4ncccc4[n+]([O-])c3)nc(N3C[C@@H]4[C@@H](N)[C@@H]4C3)c12` [Compound 1.31], the MIC with E. coli ATCC 25922 (setting [1]) and in the test with S. aureus ATCC 13709 (setting [2]) was no more than 0.5 µg/mL throughout.

`CNc1cc(F)cc2c1[nH]c1nc(Oc3cnc4c(C(C)O)cnn4c3)nc(N3C[C@H]4C[C@@H]3C[C@H]4N)c12` (stereo partly drawn) [Compound 10.55] returned an MIC Ec against E. coli ATCC 25922 (Table 18, Ec) of 1 µg/mL (≈ 1.99 µM). In the test with S. aureus ATCC 13709 (Table 18, Sa), this compound displayed an MIC Sa of no more than 0.5 µg/mL.

For `CNc1cccc2c1[nH]c1nc(Oc3cnc(N)nc3)nc(Oc3cnc(N)nc3)c12` [Compound 8.4], the minimal inhibitory concentration (MIC) is greater than 64 µg/mL in the test on E. coli ATCC 25922 (setting [1]) and 8 µg/mL (≈ 19.2 µM) with S. aureus ATCC 13709 (setting [2]).

Turning to `CNc1cc(F)cc2c1[nH]c1nc(Oc3cncc(OC)c3)nc(N3CC4C(N)C4C3)c12` (stereo not drawn) [Compound 4.164], the “MIC Ec” value with E. coli ATCC 25922 (setting [3]) was 1 µg/mL (≈ 2.3 µM). For the same compound, the “MIC Sa” value with S. aureus ATCC 13709 (setting [4]) was no more than 0.5 µg/mL.

Take `CNc1cc(F)cc2c1[nH]c1nc(Oc3cncc(-c4cncnc4)c3)nc(N3CC4C(N)C4C3)c12` (stereo not drawn) [Compound 4.205]: the “MIC Ec” value with E. coli ATCC 25922 (setting [3]) is no more than 0.5 µg/mL. Besides, in the test on S. aureus ATCC 13709 (setting [4]), the “MIC Sa” value was no more than 0.5 µg/mL.
